Results: PubChem BioAssay AID328 (DTP/NCI, 2004)
Where “and” joins values, the source holds several entries; their conditions need not be identical. Equal entries are not always repeated. Toxic doses and inconclusive results are not listed. Residues, ends and D or L forms follow the SMILES beside them.

System: BDF1 mice, P388 leukemia ip, median survival T/C
Assay: NCI In Vivo Anticancer Drug Screen. Data for tumor model P388 Leukemia (intraperitoneal) in B6D2F1 (BDF1) mice
Conditions: endpoint: median survival time, higher = longer survival
How it was run: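 Vehicle-dosed animals serve as the reference; survival of compound-dosed, tumour-implanted mice is divided by it.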

[1] = dose: 100.0 mg/kg/injection, schedule: Q01DX009 (ip), vehicle: saline with Tween-80
[2] = dose: 200.0 mg/kg/injection, schedule: Q01DX009 (ip), vehicle: saline with Tween-80
[3] = dose: 50.0 mg/kg/injection, schedule: Q04DX003 (ip), vehicle: saline
[4] = dose: 100.0 mg/kg/injection, schedule: Q04DX003 (ip), vehicle: saline
[5] = dose: 200.0 mg/kg/injection, schedule: Q04DX003 (ip), vehicle: saline
[6] = dose: 400.0 mg/kg/injection, schedule: Q04DX003 (ip), vehicle: saline
[7] = dose: 50.0 mg/kg/injection, schedule: Q04DX003 (ip), vehicle: saline with Tween-80
[8] = dose: 400.0 mg/kg/injection, schedule: Q04DX003 (ip), vehicle: saline with Tween-80
[9] = dose: 100.0 mg/kg/injection, schedule: Q01DX009 (ip), vehicle: saline
[10] = dose: 200.0 mg/kg/injection, schedule: Q01DX009 (ip), vehicle: saline
[11] = dose: 50.0 mg/kg/injection, schedule: Q01DX009 (ip), vehicle: Klucel (hydroxypropylcellulose) (HPC)
[12] = dose: 100.0 mg/kg/injection, schedule: Q01DX009 (ip), vehicle: Klucel (hydroxypropylcellulose) (HPC)
[13] = dose: 25.0 mg/kg/injection, schedule: Q01DX009 (ip), vehicle: saline with Tween-80
[14] = dose: 50.0 mg/kg/injection, schedule: Q01DX009 (ip), vehicle: saline with Tween-80
[15] = dose: 25.0 mg/kg/injection, schedule: Q04DX003 (ip), vehicle: saline
[16] = dose: 25.0 mg/kg/injection, schedule: Q01DX009 (ip), vehicle: Klucel (hydroxypropylcellulose) (HPC)

## O=C(O)CSc1ccc(NC(=O)NC2CCCCC2)cc1
[1]
  T/C: 105 % of control
[2]
  T/C: 115 % of control
dose: 400.0 mg/kg/injection, schedule: Q01DX009 (ip), vehicle: saline with Tween-80
  T/C: 105 % of control

## NNc1nc2c(N)ncnc2n1C1OC(CO)C(O)C1O (configuration not stated)
[3]
  T/C: 108 % of control
[4]
  T/C: 115 % of control
[5]
  T/C: 101 % of control
[6]
  T/C: 116 % of control

## COc1cc(Br)c(/C=C(\C)[N+](=O)[O-])cc1OC
dose: 100.0 mg/kg/injection, schedule: Q01DX001 (ip), vehicle: saline with Tween-80
  T/C: 109 % of control
dose: 200.0 mg/kg/injection, schedule: Q01DX001 (ip), vehicle: saline with Tween-80
  T/C: 93 % of control

## N=c1c2c(C(N)=O)cn(C3OC(CO)C(O)C3O)c2ncn1O (configuration not stated)
dose: 0.75 mg/kg/injection, schedule: Q01DX009 (ip), vehicle: saline with Tween-80
  T/C: 122 % of control
dose: 1.5 mg/kg/injection, schedule: Q01DX009 (ip), vehicle: saline with Tween-80
  T/C: 154 % of control
dose: 2.0 mg/kg/injection, schedule: Q01DX009 (ip), vehicle: saline with Tween-80
  T/C: 180 % of control
dose: 2.0 mg/kg/injection, schedule: Q04DX003 (ip), vehicle: saline with Tween-80
  T/C: 122 % of control
dose: 2.9 mg/kg/injection, schedule: Q04DX003 (ip), vehicle: saline with Tween-80
  T/C: 160 % of control
dose: 4.4 mg/kg/injection, schedule: Q04DX003 (ip), vehicle: saline with Tween-80
  T/C: 117 % of control
dose: 6.7 mg/kg/injection, schedule: Q04DX003 (ip), vehicle: saline with Tween-80
  T/C: 166 % of control
dose: 10.0 mg/kg/injection, schedule: Q04DX003 (ip), vehicle: saline with Tween-80
  T/C: 190 % of control
dose: 15.0 mg/kg/injection, schedule: Q04DX003 (ip), vehicle: saline with Tween-80
  T/C: 123 % of control

## CCOC(=O)C1(C(C)C)OC2CCCCCN2C1=O (configuration not stated)
[7]
  T/C: 100 % of control
dose: 100.0 mg/kg/injection, schedule: Q04DX003 (ip), vehicle: saline with Tween-80
  T/C: 108 % of control
dose: 200.0 mg/kg/injection, schedule: Q04DX003 (ip), vehicle: saline with Tween-80
  T/C: 100 % of control
[8]
  T/C: 108 % of control

## c1cnc2[nH]cnc2n1
[9]
  T/C: 95 % of control
[4]
  T/C: 100 % of control
[10]
  T/C: 95 % of control
[5]
  T/C: 100 % of control
[6]
  T/C: 90 % of control

## S=C(Nc1ccc(Cl)c(Cl)c1)N1c2ccccc2-n2cccc2C1c1cccnc1 (configuration not stated)
[11]
  T/C: 124 % of control
[12]
  T/C: 121 % of control
dose: 200.0 mg/kg/injection, schedule: Q01DX009 (ip), vehicle: Klucel (hydroxypropylcellulose) (HPC)
  T/C: 117 % of control

## Nc1nc(=O)c2[nH]cnc2n1O
dose: 13.75 mg/kg/injection, schedule: Q01DX009 (ip), vehicle: saline
  T/C: 90 % of control
dose: 27.5 mg/kg/injection, schedule: Q01DX009 (ip), vehicle: saline
  T/C: 95 % of control

## C[C@]12C=CC(=O)C=C1CC[C@@H]1[C@@H]2[C@@H](O)C[C@@]2(C)[C@H]1CC[C@]2(O)C(=O)COC(=O)CCC1CCCC1
[13]
  T/C: 113 % of control
[14]
  T/C: 109 % of control
[1]
  T/C: 95 % of control and 100 % of control

## Cc1cc(Cl)c2ccccc2[n+]1C
[15]
  T/C: 96 % of control
[3]
  T/C: 88 % of control
[4]
  T/C: 103 % of control

## Clc1ccc(-c2nc(-c3ccccc3)c(-c3ccccc3)o2)cc1
[14]
  T/C: 100 % of control
[1]
  T/C: 111 % of control
[2]
  T/C: 116 % of control

## CC1NC(=O)C2CCCN2C(=O)C2CCCN2C(=O)C(C(C)C)NC(=O)C(Cc2ccccc2)NC(=O)C(Cc2ccccc2)NC(=O)C2CCCN2C(=O)C2CCCN2C(=O)C(Cc2ccccc2)NC(=O)C(Cc2ccccc2)NC1=O (configuration not stated) (cyclo(AFFPPFFVPP); configuration not given here)
dose: 0.5 mg/kg/injection, schedule: Q01DX009 (ip), vehicle: saline
  T/C: 101 % of control
dose: 1.0 mg/kg/injection, schedule: Q01DX009 (ip), vehicle: saline
  T/C: 104 % of control
dose: 2.0 mg/kg/injection, schedule: Q01DX009 (ip), vehicle: saline
  T/C: 104 % of control

## S=c1nc[nH]c2c1ncn2CN1CCOCC1
[16]
  T/C: 110 % of control

## OC1OCCOC1O (configuration not stated)
dose: 17.8 mg/kg/injection, schedule: Q01DX009 (ip), vehicle: saline
  T/C: 101 % of control
dose: 26.6 mg/kg/injection, schedule: Q01DX009 (ip), vehicle: saline
  T/C: 112 % of control
dose: 40.0 mg/kg/injection, schedule: Q01DX009 (ip), vehicle: saline
  T/C: 110 % of control
dose: 65.0 mg/kg/injection, schedule: Q01DX009 (ip), vehicle: saline
  T/C: 121 % of control
[9]
  T/C: 166 % of control
dose: 150.0 mg/kg/injection, schedule: Q01DX009 (ip), vehicle: saline
  T/C: 169 % of control
dose: 178.0 mg/kg/injection, schedule: Q01DX009 (ip), vehicle: saline
  T/C: 166 % of control
[10]
  T/C: 166 % of control
dose: 266.0 mg/kg/injection, schedule: Q01DX009 (ip), vehicle: saline
  T/C: 165 % of control
dose: 400.0 mg/kg/injection, schedule: Q01DX009 (ip), vehicle: saline
  T/C: 157 % of control and 161 % of control and 168 % of control

## NC(=O)/C=C/C(=O)c1c(Cl)cccc1Cl
dose: 1.56 mg/kg/injection, schedule: Q01DX009 (ip), vehicle: saline with Tween-80
  T/C: 109 % of control and 115 % of control
dose: 3.13 mg/kg/injection, schedule: Q01DX009 (ip), vehicle: saline with Tween-80
  T/C: 118 % of control
dose: 6.25 mg/kg/injection, schedule: Q01DX009 (ip), vehicle: saline with Tween-80
  T/C: 123 % of control and 124 % of control
dose: 12.5 mg/kg/injection, schedule: Q01DX009 (ip), vehicle: saline with Tween-80
  T/C: 95 % of control

## C=C(C)C(=O)OC1CC2(C)OC2CC(OC(C)=O)/C(C)=C/C2OC(=O)C(=C)C21 (configuration not stated)
dose: 11.25 mg/kg/injection, schedule: Q01DX009 (ip), vehicle: saline
  T/C: 118 % of control

## NCCCC(NC(=O)CCCCCCCCN=C(N)N)C(O)CCCCCCCCN=C(N)N (configuration not stated)
dose: 3.75 mg/kg/injection, schedule: Q01DX010 (ip), vehicle: saline
  T/C: 91 % of control

## CC1=C(Cl)C(Cl)(Cl)C(=O)C(=O)C1(Cl)Cl
dose: 6.25 mg/kg/injection, schedule: Q01DX009 (ip), vehicle: other
  T/C: 100 % of control
dose: 12.5 mg/kg/injection, schedule: Q01DX009 (ip), vehicle: other
  T/C: 109 % of control
dose: 25.0 mg/kg/injection, schedule: Q01DX009 (ip), vehicle: other
  T/C: 113 % of control

## Cc1nc(C)c(Br)s1
[13]
  T/C: 100 % of control
[14]
  T/C: 100 % of control
[1]
  T/C: 107 % of control

## CN(C)c1ccc(/C=C2\C=Cc3ccccc32)cc1
dose: 3.12 mg/kg/injection, schedule: Q04DX003 (ip), vehicle: saline with Tween-80
  T/C: 90 % of control
dose: 6.25 mg/kg/injection, schedule: Q04DX003 (ip), vehicle: saline with Tween-80
  T/C: 90 % of control
dose: 12.5 mg/kg/injection, schedule: Q04DX003 (ip), vehicle: saline with Tween-80
  T/C: 92 % of control and 100 % of control
[13]
  T/C: 100 % of control
[14]
  T/C: 103 % of control
[1]
  T/C: 96 % of control and 100 % of control
[2]
  T/C: 90 % of control
[8]
  T/C: 96 % of control

## N#Cc1ccccc1NN=Nc1ccccc1-c1nc(N)nc(N)n1
dose: 12.0 mg/kg/injection, schedule: Q04DX003 (ip), vehicle: saline with Tween-80
  T/C: 115 % of control
dose: 12.0 mg/kg/injection, schedule: Q04DX003 (ip), vehicle: saline
  T/C: 108 % of control
[16]
  T/C: 100 % of control
dose: 25.0 mg/kg/injection, schedule: Q04DX003 (ip), vehicle: Klucel (hydroxypropylcellulose) (HPC)
  T/C: 104 % of control
dose: 25.0 mg/kg/injection, schedule: Q04DX003 (ip), vehicle: saline with Tween-80
  T/C: 105 % of control
[15]
  T/C: 112 % of control
dose: 35.0 mg/kg/injection, schedule: Q01DX009 (ip), vehicle: Klucel (hydroxypropylcellulose) (HPC)
  T/C: 100 % of control
dose: 35.0 mg/kg/injection, schedule: Q04DX003 (ip), vehicle: Klucel (hydroxypropylcellulose) (HPC)
  T/C: 95 % of control
[11]
  T/C: 90 % of control
dose: 50.0 mg/kg/injection, schedule: Q04DX003 (ip), vehicle: Klucel (hydroxypropylcellulose) (HPC)
  T/C: 104 % of control
[7]
  T/C: 115 % of control
[3]
  T/C: 116 % of control
dose: 75.0 mg/kg/injection, schedule: Q01DX009 (ip), vehicle: Klucel (hydroxypropylcellulose) (HPC)
  T/C: 90 % of control and 95 % of control
dose: 75.0 mg/kg/injection, schedule: Q04DX003 (ip), vehicle: Klucel (hydroxypropylcellulose) (HPC)
  T/C: 95 % of control
[12]
  T/C: 122 % of control

## Nc1ccccc1C(=O)N/N=C\c1ccc(O)cc1
[1]
  T/C: 110 % of control
[2]
  T/C: 94 % of control
